Source: paper PMC3480357, “Fragment-Hopping-Based Discovery of a Novel Chemical Series of Proto-Oncogene PIM-1 Kinase Inhibitors” (PLoS ONE, 2012)
Like-named read-outs stand apart in the source and are kept apart here. Blank lines part the entries; values can stand above or below the molecule they belong to.

Experiments:
Assay in all cases: ProQinase kinase panel, % inhibition at fixed concentration
Format in all cases: biochemical
AKT1 = AKT1 (Homo sapiens, UniProt P31749); conditions: read-out: AKT1 percentage of inhibition
Experimental: (§1) Once compounds 7 and 8 were synthesized, a pairwise comparison was performed to strictly evaluate the real impact of this fragment-hopping where imidazopyridazine is replaced by triazolopyridine.

ARK5 = target: T1, ARK5 (Homo sapiens, UniProt O60285)
T1 sequence (O60285 1-661): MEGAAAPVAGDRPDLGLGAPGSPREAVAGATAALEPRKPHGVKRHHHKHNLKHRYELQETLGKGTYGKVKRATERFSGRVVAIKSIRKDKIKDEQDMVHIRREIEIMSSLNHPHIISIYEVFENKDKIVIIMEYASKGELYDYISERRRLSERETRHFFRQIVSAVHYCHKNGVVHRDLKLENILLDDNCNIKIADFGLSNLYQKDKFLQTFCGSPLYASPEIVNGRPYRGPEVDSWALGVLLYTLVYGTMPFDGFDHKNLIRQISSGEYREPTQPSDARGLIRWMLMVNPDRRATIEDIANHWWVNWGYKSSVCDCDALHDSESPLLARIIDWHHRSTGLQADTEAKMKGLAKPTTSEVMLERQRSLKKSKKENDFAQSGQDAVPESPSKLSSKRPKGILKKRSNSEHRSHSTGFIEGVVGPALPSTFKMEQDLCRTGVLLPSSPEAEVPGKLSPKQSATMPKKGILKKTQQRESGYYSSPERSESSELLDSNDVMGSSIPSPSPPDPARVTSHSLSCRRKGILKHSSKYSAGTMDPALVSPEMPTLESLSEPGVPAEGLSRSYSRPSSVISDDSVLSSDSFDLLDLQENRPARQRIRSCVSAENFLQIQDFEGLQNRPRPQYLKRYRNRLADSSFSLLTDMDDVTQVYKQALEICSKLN
Experimental: as §1

B-RAF-V600E = B-RAF-V600E (Homo sapiens, UniProt P15056, V600E)
Experimental: as §1

CK1-α1 = CK1-α1 (Homo sapiens, UniProt P48729); conditions: for inhibition at 10 µM: inhibitor at 10 µM
Experimental: as §1

DYRK1A = DYRK1A (Homo sapiens, UniProt Q13627); conditions: for inhibition at 10 µM: inhibitor at 10 µM
Experimental: as §1

EGF-R = EGF-R (Homo sapiens, UniProt P00533)
Experimental: as §1

FGF-R1 = FGF-R1 (Homo sapiens, UniProt P11362); conditions: for inhibition at 10 µM: inhibitor at 10 µM
Experimental: as §1

IGF1-R = IGF1-R (Homo sapiens, UniProt P08069); conditions: read-out: IGF1-R percentage of inhibition
Experimental: as §1

JAK2 = JAK2 (Homo sapiens, UniProt O60674); conditions: average of two data points, read-out: JAK2 percentage of inhibition; for inhibition at 10 µM: inhibitor at 10 µM
Experimental: as §1

MET = MET (Homo sapiens, UniProt P08581); conditions: read-out: MET percentage of inhibition
Experimental: as §1

MST1 = target: T2, MST1 (Homo sapiens, UniProt Q13043); conditions: for inhibition at 10 µM: inhibitor at 10 µM
T2 sequence (Q13043 1-487): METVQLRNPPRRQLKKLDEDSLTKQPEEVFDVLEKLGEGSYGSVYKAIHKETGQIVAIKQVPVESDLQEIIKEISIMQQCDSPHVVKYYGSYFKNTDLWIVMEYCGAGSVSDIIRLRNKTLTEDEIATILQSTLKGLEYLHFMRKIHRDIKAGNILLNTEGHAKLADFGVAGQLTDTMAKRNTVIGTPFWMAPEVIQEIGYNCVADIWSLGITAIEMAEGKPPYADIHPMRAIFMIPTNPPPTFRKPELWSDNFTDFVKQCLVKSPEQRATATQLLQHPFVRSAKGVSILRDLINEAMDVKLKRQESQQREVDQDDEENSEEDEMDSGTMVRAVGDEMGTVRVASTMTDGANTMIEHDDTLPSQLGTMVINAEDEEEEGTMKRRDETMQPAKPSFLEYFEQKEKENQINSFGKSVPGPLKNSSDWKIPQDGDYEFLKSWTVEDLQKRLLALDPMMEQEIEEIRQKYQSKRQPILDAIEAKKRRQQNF
Experimental: as §1

PAK1 = PAK1 (Homo sapiens, UniProt Q13153); conditions: read-out: PAK1 percentage of inhibition
Experimental: as §1

PDGFR-α = PDGFR-α (Homo sapiens, UniProt P16234)
Experimental: as §1

RPS6KA1 = RPS6KA1 (Homo sapiens, UniProt Q15418)
Experimental: as §1

SGK1 = target: T3, SGK1 (Homo sapiens, UniProt O00141); conditions: for inhibition at 10 µM: inhibitor at 10 µM
T3 sequence (O00141 1-431): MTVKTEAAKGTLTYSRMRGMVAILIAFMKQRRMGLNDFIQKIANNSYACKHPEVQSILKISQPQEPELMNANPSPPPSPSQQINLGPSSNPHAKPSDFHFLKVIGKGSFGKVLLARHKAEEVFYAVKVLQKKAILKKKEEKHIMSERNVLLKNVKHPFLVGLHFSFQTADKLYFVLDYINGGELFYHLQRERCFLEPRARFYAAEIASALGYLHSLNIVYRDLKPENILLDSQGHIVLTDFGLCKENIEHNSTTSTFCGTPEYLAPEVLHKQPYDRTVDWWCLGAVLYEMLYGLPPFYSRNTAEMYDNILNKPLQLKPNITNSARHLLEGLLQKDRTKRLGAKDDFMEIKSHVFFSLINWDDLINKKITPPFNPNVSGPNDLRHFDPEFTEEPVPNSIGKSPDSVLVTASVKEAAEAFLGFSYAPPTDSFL
Experimental: as §1

[1] = average of two data points, read-out: CK1-α1 percentage of inhibition
[2] = average of two data points, read-out: DYRK1A percentage of inhibition
[3] = average of two data points, read-out: FGF-R1 percentage of inhibition
[4] = average of two data points, read-out: MST1 percentage of inhibition
[5] = average of two data points, read-out: SGK1 percentage of inhibition
[6] = inhibitor at 10 µM, average of two data points
[7] = compound 7 vs compound 1, 10 µM
[8] = inhibitor at 5 µM, average of two data points
[9] = compound 8 (5 µM) versus compound 3 (10 µM)
[10] = compound 8 (5 µM) vs compound 3 (10 µM)

Chain of FGF-R1 (P11362 22-822, species assumed): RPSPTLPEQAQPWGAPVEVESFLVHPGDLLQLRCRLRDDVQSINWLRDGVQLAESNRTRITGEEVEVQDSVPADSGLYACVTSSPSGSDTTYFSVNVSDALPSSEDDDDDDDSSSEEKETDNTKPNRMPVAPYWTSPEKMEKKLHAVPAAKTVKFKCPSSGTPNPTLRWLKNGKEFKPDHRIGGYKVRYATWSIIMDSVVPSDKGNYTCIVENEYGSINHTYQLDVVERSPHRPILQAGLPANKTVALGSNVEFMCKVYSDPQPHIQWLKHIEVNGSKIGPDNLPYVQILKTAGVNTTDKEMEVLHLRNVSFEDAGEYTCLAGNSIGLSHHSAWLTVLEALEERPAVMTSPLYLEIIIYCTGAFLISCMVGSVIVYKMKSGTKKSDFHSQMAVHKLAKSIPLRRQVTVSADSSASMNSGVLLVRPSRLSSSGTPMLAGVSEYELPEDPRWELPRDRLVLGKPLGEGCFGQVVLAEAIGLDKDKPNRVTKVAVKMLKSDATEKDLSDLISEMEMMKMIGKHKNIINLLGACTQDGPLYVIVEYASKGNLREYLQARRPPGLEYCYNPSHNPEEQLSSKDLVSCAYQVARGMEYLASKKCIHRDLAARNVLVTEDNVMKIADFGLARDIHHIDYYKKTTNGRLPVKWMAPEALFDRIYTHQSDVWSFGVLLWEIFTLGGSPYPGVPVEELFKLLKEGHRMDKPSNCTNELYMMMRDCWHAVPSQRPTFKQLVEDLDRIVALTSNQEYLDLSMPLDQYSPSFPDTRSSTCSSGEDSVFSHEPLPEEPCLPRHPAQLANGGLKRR
Chain of IGF1-R (P08069 31-1367, species assumed): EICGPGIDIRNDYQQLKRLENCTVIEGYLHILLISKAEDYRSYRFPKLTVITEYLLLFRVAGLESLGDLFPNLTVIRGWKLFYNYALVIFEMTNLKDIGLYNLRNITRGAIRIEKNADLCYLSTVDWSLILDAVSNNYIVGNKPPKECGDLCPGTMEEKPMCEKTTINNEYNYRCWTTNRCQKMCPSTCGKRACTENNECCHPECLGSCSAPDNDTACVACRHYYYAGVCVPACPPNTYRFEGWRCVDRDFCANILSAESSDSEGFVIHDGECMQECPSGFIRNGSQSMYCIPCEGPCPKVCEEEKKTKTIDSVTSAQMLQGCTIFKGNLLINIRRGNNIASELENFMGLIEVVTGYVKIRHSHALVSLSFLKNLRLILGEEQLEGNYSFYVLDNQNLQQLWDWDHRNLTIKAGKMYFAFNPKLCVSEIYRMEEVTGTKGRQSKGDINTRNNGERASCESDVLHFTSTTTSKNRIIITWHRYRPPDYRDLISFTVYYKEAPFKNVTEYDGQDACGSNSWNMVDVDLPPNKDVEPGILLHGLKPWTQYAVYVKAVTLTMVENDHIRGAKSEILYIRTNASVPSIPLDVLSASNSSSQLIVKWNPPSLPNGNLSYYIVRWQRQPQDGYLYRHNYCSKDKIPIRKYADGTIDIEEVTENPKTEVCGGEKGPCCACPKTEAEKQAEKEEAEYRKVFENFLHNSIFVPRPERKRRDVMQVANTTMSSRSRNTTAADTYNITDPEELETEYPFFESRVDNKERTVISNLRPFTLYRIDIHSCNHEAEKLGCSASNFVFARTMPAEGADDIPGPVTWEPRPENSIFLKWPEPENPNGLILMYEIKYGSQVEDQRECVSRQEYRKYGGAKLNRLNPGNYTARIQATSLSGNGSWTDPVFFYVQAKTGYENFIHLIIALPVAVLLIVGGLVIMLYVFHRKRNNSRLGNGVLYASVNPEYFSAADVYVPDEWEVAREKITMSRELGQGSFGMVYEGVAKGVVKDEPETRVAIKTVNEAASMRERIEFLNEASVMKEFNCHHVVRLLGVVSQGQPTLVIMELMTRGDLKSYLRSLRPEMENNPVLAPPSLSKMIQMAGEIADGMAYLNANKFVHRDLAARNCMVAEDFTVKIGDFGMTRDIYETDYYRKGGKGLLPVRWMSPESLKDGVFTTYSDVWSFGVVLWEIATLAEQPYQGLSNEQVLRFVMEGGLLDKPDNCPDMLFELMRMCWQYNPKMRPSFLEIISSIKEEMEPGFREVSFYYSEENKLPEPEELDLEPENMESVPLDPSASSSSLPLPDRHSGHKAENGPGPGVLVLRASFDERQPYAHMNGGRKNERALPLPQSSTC
Chain of EGF-R (P00533 25-1210, species assumed): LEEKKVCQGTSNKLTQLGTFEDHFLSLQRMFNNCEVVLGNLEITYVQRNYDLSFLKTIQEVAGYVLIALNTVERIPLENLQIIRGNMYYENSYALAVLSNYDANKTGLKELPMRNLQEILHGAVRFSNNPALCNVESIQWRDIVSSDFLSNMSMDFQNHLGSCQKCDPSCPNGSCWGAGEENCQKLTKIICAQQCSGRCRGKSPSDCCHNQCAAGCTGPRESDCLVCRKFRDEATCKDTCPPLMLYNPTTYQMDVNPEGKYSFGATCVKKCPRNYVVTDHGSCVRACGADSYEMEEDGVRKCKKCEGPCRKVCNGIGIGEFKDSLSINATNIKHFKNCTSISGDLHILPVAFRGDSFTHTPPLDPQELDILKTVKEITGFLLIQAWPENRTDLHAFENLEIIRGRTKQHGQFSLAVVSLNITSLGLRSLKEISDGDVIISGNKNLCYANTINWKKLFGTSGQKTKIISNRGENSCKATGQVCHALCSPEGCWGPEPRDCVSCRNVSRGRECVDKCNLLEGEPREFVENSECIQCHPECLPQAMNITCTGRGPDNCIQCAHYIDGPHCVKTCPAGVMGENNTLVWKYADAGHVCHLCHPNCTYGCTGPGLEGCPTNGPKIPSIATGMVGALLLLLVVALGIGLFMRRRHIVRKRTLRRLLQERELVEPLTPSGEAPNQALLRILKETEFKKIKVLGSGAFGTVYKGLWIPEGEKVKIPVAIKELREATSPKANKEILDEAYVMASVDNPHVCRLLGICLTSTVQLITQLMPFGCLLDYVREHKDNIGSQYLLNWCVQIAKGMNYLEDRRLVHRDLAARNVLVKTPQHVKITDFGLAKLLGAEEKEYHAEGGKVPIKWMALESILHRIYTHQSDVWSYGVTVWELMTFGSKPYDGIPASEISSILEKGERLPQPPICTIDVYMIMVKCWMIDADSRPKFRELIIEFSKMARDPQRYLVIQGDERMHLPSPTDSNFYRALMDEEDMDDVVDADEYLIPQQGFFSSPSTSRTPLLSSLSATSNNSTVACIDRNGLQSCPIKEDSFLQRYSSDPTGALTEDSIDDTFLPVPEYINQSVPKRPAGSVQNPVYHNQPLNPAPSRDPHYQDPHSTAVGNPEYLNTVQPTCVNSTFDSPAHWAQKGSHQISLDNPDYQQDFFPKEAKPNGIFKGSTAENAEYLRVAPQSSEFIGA
Chain of RPS6KA1 (Q15418 whole entry, species assumed): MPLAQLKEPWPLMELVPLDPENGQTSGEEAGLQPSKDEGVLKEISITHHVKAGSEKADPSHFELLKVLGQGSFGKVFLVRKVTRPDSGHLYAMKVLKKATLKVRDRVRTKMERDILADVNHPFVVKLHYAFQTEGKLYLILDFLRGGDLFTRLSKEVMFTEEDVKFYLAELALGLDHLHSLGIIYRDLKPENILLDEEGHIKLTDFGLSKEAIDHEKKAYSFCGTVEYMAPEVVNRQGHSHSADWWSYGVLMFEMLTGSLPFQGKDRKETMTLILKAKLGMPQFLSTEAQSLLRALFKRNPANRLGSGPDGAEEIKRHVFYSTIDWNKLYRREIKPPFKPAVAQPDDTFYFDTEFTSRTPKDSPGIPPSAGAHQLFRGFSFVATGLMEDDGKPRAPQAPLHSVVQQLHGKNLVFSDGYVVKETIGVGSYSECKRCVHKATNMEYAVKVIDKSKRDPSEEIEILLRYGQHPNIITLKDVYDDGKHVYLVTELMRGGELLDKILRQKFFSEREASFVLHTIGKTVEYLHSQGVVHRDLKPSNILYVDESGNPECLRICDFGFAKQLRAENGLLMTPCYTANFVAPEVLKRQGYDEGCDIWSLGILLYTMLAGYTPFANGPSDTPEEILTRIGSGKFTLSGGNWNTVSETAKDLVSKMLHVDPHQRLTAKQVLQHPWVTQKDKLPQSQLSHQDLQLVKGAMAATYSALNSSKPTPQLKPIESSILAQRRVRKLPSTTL
Chain of AKT1 (P31749 whole entry, species assumed, the tested form may be a part): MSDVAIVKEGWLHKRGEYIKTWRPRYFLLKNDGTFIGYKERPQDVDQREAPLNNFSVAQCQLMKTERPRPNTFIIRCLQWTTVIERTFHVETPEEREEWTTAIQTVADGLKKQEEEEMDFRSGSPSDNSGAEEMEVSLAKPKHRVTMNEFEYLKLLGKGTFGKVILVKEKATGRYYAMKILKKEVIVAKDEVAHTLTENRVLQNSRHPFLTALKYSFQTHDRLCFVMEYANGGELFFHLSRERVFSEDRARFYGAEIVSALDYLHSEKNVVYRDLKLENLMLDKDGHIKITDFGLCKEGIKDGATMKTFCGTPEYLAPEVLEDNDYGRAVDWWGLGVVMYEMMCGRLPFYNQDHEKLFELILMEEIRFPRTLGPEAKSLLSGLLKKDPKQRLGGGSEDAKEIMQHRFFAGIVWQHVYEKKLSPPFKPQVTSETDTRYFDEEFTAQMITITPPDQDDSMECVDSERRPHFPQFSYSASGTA
Chain of CK1-α1 (P48729 whole entry): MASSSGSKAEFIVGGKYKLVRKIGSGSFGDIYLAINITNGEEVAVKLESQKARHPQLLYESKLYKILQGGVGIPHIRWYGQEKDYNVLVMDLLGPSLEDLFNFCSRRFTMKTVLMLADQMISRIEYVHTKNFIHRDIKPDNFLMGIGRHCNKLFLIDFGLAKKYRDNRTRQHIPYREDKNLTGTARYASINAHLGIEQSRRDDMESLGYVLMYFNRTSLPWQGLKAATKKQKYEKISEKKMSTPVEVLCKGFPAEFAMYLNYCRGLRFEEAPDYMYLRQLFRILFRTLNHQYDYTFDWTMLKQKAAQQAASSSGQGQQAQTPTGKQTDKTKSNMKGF

Compound: CN1CCC(CNc2ccc3ncc(-c4cccc(OC(F)(F)F)c4)n3n2)CC1 [Compound 3, reference compound]
inhibition at 10 µM (AKT1): 0%
inhibition at 10 µM (ARK5; read-out: ARK5 percentage of inhibition): 42%
inhibition at 10 µM (B-RAF-V600E; read-out: B-RAF-V600E percentage of inhibition): 41%
inhibition at 10 µM (CK1-α1; [1]): 0%
inhibition at 10 µM (DYRK1A; [2]): 19%
inhibition at 10 µM (EGF-R; read-out: EGF-R percentage of inhibition): 32%
inhibition at 10 µM (FGF-R1; [3]): 65%
inhibition at 10 µM (IGF1-R): 53%
inhibition at 10 µM (JAK2): 3%
inhibition at 10 µM (MET): 12%
inhibition at 10 µM (MST1; [4]): 60%
inhibition at 5 µM (PAK1): 8%
inhibition at 10 µM (PDGFR-α; read-out: PDGFR-α percentage of inhibition): 92%
inhibition at 10 µM (RPS6KA1; read-out: RPS6KA1 percentage of inhibition): 48%
inhibition at 10 µM (SGK1; [5]): 55%

inhibition at 10 µM (AKT1; [6]): 0%
inhibition at 10 µM (ARK5; inhibitor at 10 µM, average of two data points, read-out: ARK5 percentage of inhibition): 13%
inhibition at 10 µM (B-RAF-V600E; inhibitor at 10 µM, average of two data points, read-out: B-RAF-V600E percentage of inhibition): 8%
inhibition at 10 µM (CK1-α1; [1]): 8%
DYRK1A reduction of percentage of inhibition (DYRK1A; compound 7 compared to compound 1, 10 µM): more than 25%
inhibition at 10 µM (DYRK1A; [2]): > 70%
inhibition at 10 µM (EGF-R; inhibitor at 10 µM, average of two data points, read-out: EGF-R percentage of inhibition): 8%
inhibition at 10 µM (FGF-R1; [3]): 19%
inhibition at 10 µM (IGF1-R; [6]): 9%
inhibition at 10 µM (JAK2): 30%
inhibition at 10 µM (MET; [6]): 21%
inhibition at 10 µM (MST1; [4]): 29%
inhibition at 10 µM (PAK1; [6]): 5%
inhibition at 10 µM (PDGFR-α; inhibitor at 10 µM, average of two data points, read-out: PDGFR-α percentage of inhibition): 53%
inhibition at 10 µM (RPS6KA1; inhibitor at 10 µM, average of two data points, read-out: RPS6KA1 percentage of inhibition): 45%
inhibition at 10 µM (SGK1; [5]): 12%
Compound: Oc1ccc(-n2nnc3ccc(NCc4ccc(F)cc4)nc32)cc1 [Compound 7, 4-[5-(4-Fluoro-benzylamino)-[1], [2], [3]triazolo[4,5-b]pyridin-3-yl]-phenol]
ARK5 improvement in percentage of inhibition (ARK5; [7]): c (This designation indicates that the improvement in percentage of inhibition was equal or greater than 50%)
B-RAF-V600E improvement in percentage of inhibition (B-RAF-V600E; [7]): b (This designation indicates that the improvement in percentage of inhibition was equal or greater than 25%)
CK1-α1 improvement in percentage of inhibition (CK1-α1; [7]): b (This designation indicates that the improvement in percentage of inhibition was equal or greater than 25%)
DYRK1A improvement in percentage of inhibition (DYRK1A; [7]): b (This designation indicates that the improvement in percentage of inhibition was equal or greater than 25%)
EGF-R improvement in percentage of inhibition (EGF-R; [7]): b (This designation indicates that the improvement in percentage of inhibition was equal or greater than 25%)
FGF-R1 improvement in percentage of inhibition (FGF-R1; [7]): c (This designation indicates that the improvement in percentage of inhibition was equal or greater than 50%)
MST1 improvement in percentage of inhibition (MST1; [7]): c (This designation indicates that the improvement in percentage of inhibition was equal or greater than 50%)
PDGFR-α improvement in percentage of inhibition (PDGFR-α; [7]): b (This designation indicates that the improvement in percentage of inhibition was equal or greater than 25%)
RPS6KA1 improvement in percentage of inhibition (RPS6KA1; [7]): c (This designation indicates that the improvement in percentage of inhibition was equal or greater than 50%)
SGK1 improvement in percentage of inhibition (SGK1; [7]): c (This designation indicates that the improvement in percentage of inhibition was equal or greater than 50%)

inhibition at 5 µM (AKT1; [8]): 0%
inhibition at 5 µM (ARK5; inhibitor at 5 µM, average of two data points, read-out: ARK5 percentage of inhibition): 18%
inhibition at 5 µM (B-RAF-V600E; inhibitor at 5 µM, average of two data points, read-out: B-RAF-V600E percentage of inhibition): 10%
inhibition at 5 µM (CK1-α1; inhibitor at 5 µM, average of two data points, read-out: CK1-α1 percentage of inhibition): 8%
inhibition at 5 µM (DYRK1A; inhibitor at 5 µM, average of two data points, read-out: DYRK1A percentage of inhibition): 3%
inhibition at 5 µM (EGF-R; inhibitor at 5 µM, average of two data points, read-out: EGF-R percentage of inhibition): 18%
inhibition at 5 µM (FGF-R1; inhibitor at 5 µM, average of two data points, read-out: FGF-R1 percentage of inhibition): 16%
inhibition at 5 µM (IGF1-R; [8]): 25%
inhibition at 5 µM (JAK2; inhibitor at 5 µM): 0%
inhibition at 5 µM (MET; [8]): 6%
inhibition at 5 µM (MST1; inhibitor at 5 µM, average of two data points, read-out: MST1 percentage of inhibition): 20%
inhibition at 5 µM (PAK1; [8]): 2%
PDGFR-α increment in percentage of inhibition (PDGFR-α; [9]): > 50%
inhibition at 5 µM (PDGFR-α; inhibitor at 5 µM, average of two data points, read-out: PDGFR-α percentage of inhibition): 20%
inhibition at 5 µM (RPS6KA1; inhibitor at 5 µM, average of two data points, read-out: RPS6KA1 percentage of inhibition): 37%
SGK1 increment in percentage of inhibition (SGK1; [9]): > 50%
inhibition at 5 µM (SGK1; inhibitor at 5 µM, average of two data points, read-out: SGK1 percentage of inhibition): 0%
Compound: CN1CCC(CNc2ccc3nnn(-c4cccc(OC(F)(F)F)c4)c3n2)CC1 [Compound 8, (1-Methyl-piperidin-4-ylmethyl)-[3-(3-trifluoromethoxy-phenyl)-3H-[1], [2], [3]triazolo[4,5-b]pyridin-5-yl]-amine]
PDGFR-α improvement in percentage of inhibition (PDGFR-α; [10]): c (This designation indicates that the improvement in percentage of inhibition was greater than 50%)
SGK1 improvement in percentage of inhibition (SGK1; [10]): c (This designation indicates that the improvement in percentage of inhibition was greater than 50%)
